Measured values reported in patent US5130139A, “Reduction or prevention of skin irritation by drugs” (Alza Corporation, priority 1990, dated 1992).
Read-outs that look alike come from different tables or passages of the source.

Assays:
human skin fibroblasts [1] = test: in vitro
Excerpt: (§1) The following examples are offered to illustrate the practice of the present invention. It is important to note that this invention is not limited to any particular transdermal device or other form of transdermal delivery, as are commonly known in the art. Nor is this invention limited to a particular formulation. Therefore, the embodiments described herein are merely illustrative and are not intended to limit the scope of the invention in any manner.
(§2) Four beta-adrenergic blocking drugs (propranolol, labetalol, pindolol and timolol) were tested for their uptake and their toxicity in human skin fibroblasts.
(§3) To estimate the toxicity of the tested compounds, the general procedure of the MTT assay (Swisher et al., Models Dermatol., Maibach and Lowe (eds.), Basel, Karger, vol. 4, pp 131-137, 1989) was used. Cell cultures of fibroblasts were incubated for 16 hours in medium containing a range of concentrations of the drug being tested. At the end of the incubation time, the medium was removed and replaced with medium containing MTT at 0.5 mg/ml. After 3 hours, this medium was discarded and the blue formazan, a metabolite of MTT produced only by viable cells, was dissolved in acidified isopropanol. Absorbance of this solution was measured at 540 nm against a reference wavelength of 660 nm. Results were then expressed as percent of control cultures incubated in the same conditions without drug or agent.
(§4) The treated cells were also tested for the cytotoxic effect of propranolol in the presence of various concentrations of monensin, following the procedures of Example 1.
(§5) They were tested with 10^-6 M monensin.
(§6) In the Table, the "factor of protection" is the ratio of the ID50 of the toxic drug incubated with monensin to the ID50 of the toxic drug alone.
(§7) The action of various ionophores and amphiphilic amines on the cytotoxicity of propranolol and chloroquine was determined, following the procedures of Example 1. The "factor of protection" corresponds to the ratio of the ID50 of the toxic drug incubated with uptake-inhibiting agent at the indicated concentration, to the ID50 of the toxic drug alone. The "mode of action" indicates either the ions which are preferentially carried by the tested ionophores or that the agent acts by competition.

in vitro = conditions: human, skin fibroblasts
Excerpt: as §1, §2, §3, §4, §5, §6, §7

lysosomes = conditions: literature; cited from earlier work
[2] = In vitro permeation through human epidermis from gels; assay type: in vitro ADME; conditions: gels of Example 5; 37° C.; sampled at 3, 8 and 24 hours
Experimental: Circular pieces of human epidermis were mounted in horizontal permeation cells (1.13 cm^2 of effective permeating surface) with the stratum corneum facing the donor compartment of the cell. A known volume (20-23 ml) of 0.2M TRIS buffer pH 7.5 (the receptor solution) was placed in the receptor compartment. The cell was then placed in a water bath-shaker at 37° C. and allowed to equilibrate. A 0.2 ml aliquot of the tested formulation was transferred to the donor compartment. Occlusion was achieved by the use of a teflon film in contact with the formulation. At 3, 8 and 24 hours, the receptor solutions were removed and replaced with equal volumes of fresh receptor solution previously equilibrated at 37° C. Chloroquine was quantified in the samples by fluorometrical measurements. These were carried out at room temperature in a Perkin-ElmerLS-5B luminescence spectrometer. The samples were adjusted to pH 8.65 at a final TRIS concentration of 0.1M and 30% (vol/vol) ethanol. The excitation wavelength was 333 nm and the emission wavelength was 382 nm. Chloroquine concentrations were extrapolated by comparison with a standard curve obtained under the same conditions. […] For each formulation condition, eight permeation cells were used. Results are presented as the means with their associated standard error.

human skin fibroblasts [3] = test: Uptake/accumulation of radiolabelled drug in fibroblasts, 16 h incubation; assay type: cell-based
Experimental: For the uptake studies, cell cultures of fibroblasts were exposed to medium containing the radioactive-labelled drug and incubated for 16 hours. The uptake process was then stopped by removing the medium and rapidly washing the cells with cold PBS three times. The cells were then extracted with methanol which was transferred to counting vials, and the amount of radioactivity was measured by liquid scintillation. To compensate for non-specific binding to the plastic of the wells, wells containing no cells were incubated with the radiolabelled drugs under the same conditions. The radioactive content of those wells was taken as the control value and substracted form the radioactive content of the wells containing cells.
Fibroblast cell cultures were incubated for 16 hours in propranolol (2×10^-7 M) with various concentrations of monensin. The accumulation of propranolol in the cells was then determined, following the procedures of Example 1. […] At 10^-5 M monensin, propranolol uptake was negligible even though the cells were fully viable.

[4] = tested on: skin irritation (erythema), volar forearm; test: In vivo skin irritation (erythema, Minolta Chromameter) after 16 h application of gel to volar forearm; set-up: species or system human; conditions: monensin 5.0 wt % with chloroquine 1.0 wt % gel
Experimental: The resulting gels were buffered to pH 8.5 with EPPS buffer and contained 30 wt % ethanol to maintain the solubility of the drug.
All of the gels were placed in such manner. After 16 hours, each cup was removed and the site was washed. At various times thereafter the sites were observed and the intensity of the irritant reaction (the erythema) was scored by measuring skin color with an electronic instrument, the Minolta Chromameter.

[5] = against chloroquine cytotoxicity, agent 10^-5 M
[6] = against propranolol cytotoxicity, agent 10^-5 M
[7] = against chloroquine cytotoxicity, agent 10^-2 M

## C1COCCOCCOCCOCCO1 [15-Crown-5]
Human skin fibroblasts [1]
  Factor of Protection, Chloroquine (ID50 with agent / ID50 alone): 1
  Factor of Protection, Propranolol (ID50 with agent / ID50 alone): 1

## Oc1ccc2ccccc2c1-c1c(O)ccc2ccccc12 [(R)(+)-1,1'-bi-2-Naphthol, (R)(+)-1,1'-bi-2-naphthol]
Human skin fibroblasts [1]; against chloroquine cytotoxicity, agent 3.5 × 10^-5 M
  Factor of Protection, Chloroquine (ID50 with agent / ID50 alone): 2.9

## CNc1ccc2oc(C[C@H]3O[C@@]4(CC[C@H]3C)O[C@H]([C@H](C)C(=O)c3ccc[nH]3)[C@H](C)C[C@H]4C)nc2c1C(=O)O [A23187]
Human skin fibroblasts [1]; against chloroquine cytotoxicity, agent 10^-6 M
  Factor of Protection, Chloroquine (ID50 with agent / ID50 alone): 11
Human skin fibroblasts [1]; against propranolol cytotoxicity, agent 10^-6 M
  Factor of Protection, Propranolol (ID50 with agent / ID50 alone): 1

## N#CC(C#N)=NNc1cccc(Cl)c1 [Carbonyl cyanide m-chlorophenylhydrazone, carbonyl cyanide m-chlorophenylhydrazone]
Human skin fibroblasts [1]; [5]
  Factor of Protection, Chloroquine (ID50 with agent / ID50 alone): 13
Human skin fibroblasts [1]; [6]
  Factor of Protection, Propranolol (ID50 with agent / ID50 alone): 1

## CCN(CC)CCCC(C)Nc1ccnc2cc(Cl)ccc12 (stereo not shown) [Chloroquine, chloroquine]
Human skin fibroblasts [1]
  Factor of Protection (ID50 with monensin / ID50 alone): 10.0
  Factor of Protection, Propranolol (ID50 with agent / ID50 alone): 1
In vitro; ID50 (M), Drug + Monensin
  CC50 at 16 h: 0.0007 M
In vitro; ID50 (M), Drug Alone
  CC50 at 16 h: 7e-05 M
lysosomes
  Accumulation in lysosomes: have been shown to accumulate in lysosomes
[2]
  Permeation through human epidermis with versus without ammonium chloride: the same

## CN(C)CCCN1c2ccccc2Sc2ccc(Cl)cc21 [Chlorpromazine]
Human skin fibroblasts [1]
  Factor of Protection (ID50 with monensin / ID50 alone): 1.6
In vitro; ID50 (M), Drug + Monensin, Table A, with 10^-6 M monensin, 16 h
  CC50 at 16 h: 1.6e-05 M
In vitro; ID50 (M), Drug Alone, Table A, 16 h
  CC50 at 16 h: 1e-05 M

## CN1CCC[C@@H]1CCO[C@](C)(c1ccccc1)c1ccc(Cl)cc1 [Clemastine]
Human skin fibroblasts [1]
  Factor of Protection (ID50 with monensin / ID50 alone): 1.2

## OCCNCCO [Diethanolamine]
Human skin fibroblasts [1]
  Factor of Protection, Chloroquine (ID50 with agent / ID50 alone): 1.5

## CCNCC [Diethylamine]
Human skin fibroblasts [1]; [7]
  Factor of Protection, Chloroquine (ID50 with agent / ID50 alone): 3.3

## NCCO [Ethanolamine]
Human skin fibroblasts [1]
  Factor of Protection, Chloroquine (ID50 with agent / ID50 alone): 6.4

## CN(C)CCCN1c2ccccc2CCc2ccccc21 [Imipramine]
Human skin fibroblasts [1]
  Factor of Protection (ID50 with monensin / ID50 alone): 1.4
In vitro; ID50 (M), Drug + Monensin
  CC50 at 16 h: 0.00027 M
In vitro; ID50 (M), Drug Alone
  CC50 at 16 h: 0.00019 M

## CC(C)N [Isopropylamine]
Human skin fibroblasts [1]; [7]
  Factor of Protection, Chloroquine (ID50 with agent / ID50 alone): 6.2

## CC[C@@]1([C@@H]2O[C@@H]([C@H]3O[C@@](O)(CO)[C@H](C)C[C@@H]3C)C[C@@H]2C)CC[C@H]([C@]2(C)CC[C@]3(C[C@H](O)[C@@H](C)[C@@H]([C@@H](C)[C@@H](OC)[C@H](C)C(=O)O)O3)O2)O1 [Monensin, monensin]
Human skin fibroblasts [1]; 10^-6 M monensin, clemastine, imipramine, chlorpromazine, quinacrine, chloroquine
  Effect of monensin on toxicity of five weak base drugs: reduced the toxicity of all the drugs
Human skin fibroblasts [1]; [5]
  Factor of Protection, Chloroquine (ID50 with agent / ID50 alone): 19
Human skin fibroblasts [1]; against propranolol cytotoxicity, agent 10^-5 M, pre-treatment of 2 hours with agent
  Factor of Protection, Propranolol (ID50 with agent / ID50 alone): 1.41
Human skin fibroblasts [1]; monensin 10^-8 M to 10^-5 M
  Effect of monensin on propranolol toxicity: dose-dependent decrease of propranolol toxicity
Human skin fibroblasts [3]; propranolol 2×10^-7 M, monensin 10^-5 M
  Propranolol uptake at 10^-5 M monensin: negligible
Human skin fibroblasts [3]; propranolol 2×10^-7 M, monensin 10^-8 M to 10^-5 M
  Effect of monensin on propranolol uptake in the cells: decreased propranolol uptake in the cells in a dose-dependent manner
Human skin fibroblasts [3]; with propranolol 2×10^-7 M, monensin 10^-5 M
  Viability of cells at 10^-5 M monensin: fully viable
[4]
  Effect of monensin on irritant reaction (erythema): reduced the irritant reaction

## CO[C@@H]1C[C@@H](C[C@H]2CC[C@H](C)[C@H]([C@@H](C)C(=O)O)O2)O[C@]2(O[C@](C)([C@H]3CC[C@@](C)([C@@H]4O[C@@H]([C@H]5O[C@@](O)(CO)[C@H](C)C[C@@H]5C)C[C@@H]4C)O3)C[C@H]2C)[C@@H]1C [Nigericin]
Human skin fibroblasts [1]; against chloroquine cytotoxicity, agent 1.5 × 10^-7 M
  Factor of Protection, Chloroquine (ID50 with agent / ID50 alone): 11

## C[C@@H]1C[C@H]2CC[C@H](O2)[C@H](C)C(=O)O[C@@H](C)C[C@@H]2CC[C@@H](O2)[C@@H](C)C(=O)O[C@H](C)C[C@H]2CC[C@H](O2)[C@H](C)C(=O)O[C@@H](C)C[C@@H]2CC[C@@H](O2)[C@@H](C)C(=O)O1 [Nonactin]
Human skin fibroblasts [1]; against chloroquine cytotoxicity, agent 5 × 10^-6 M
  Factor of Protection, Chloroquine (ID50 with agent / ID50 alone): 26
Human skin fibroblasts [1]; against propranolol cytotoxicity, agent 5 × 10^-6 M
  Factor of Protection, Propranolol (ID50 with agent / ID50 alone): 1

## CC(C)NCC(O)COc1cccc2ccccc12 (stereo not shown) [Propranolol, propranolol]
Human skin fibroblasts [1]
  Factor of Protection, Chloroquine (ID50 with agent / ID50 alone): 1.8
In vitro; ID50 (concentration of drug required to kill 50% of the cells), drug alone
  CC50 at 16 h: 0.00028 M
In vitro; ID50 (concentration of drug required to kill 50% of the cells), drug with monensin
  CC50 at 16 h: 0.00038 M
lysosomes
  Accumulation in lysosomes: have been shown to accumulate in lysosomes

## CCN(CC)CCCC(C)Nc1c2ccc(Cl)cc2nc2ccc(OC)cc12 (stereo not shown) [Quinacrine]
Human skin fibroblasts [1]
  Factor of Protection (ID50 with monensin / ID50 alone): 3.2
In vitro; ID50 (M), Drug + Monensin
  CC50 at 16 h: 4.2e-05 M
In vitro; ID50 (M), Drug Alone
  CC50 at 16 h: 1.3e-05 M

## NC(CO)(CO)CO [Tromethamine]
Human skin fibroblasts [1]
  Factor of Protection, Chloroquine (ID50 with agent / ID50 alone): 1.2

## CC(C)[C@@H]1NC(=O)[C@H](C)OC(=O)[C@@H](C(C)C)NC(=O)[C@@H](C(C)C)OC(=O)[C@H](C(C)C)NC(=O)[C@H](C)OC(=O)[C@@H](C(C)C)NC(=O)[C@@H](C(C)C)OC(=O)[C@H](C(C)C)NC(=O)[C@H](C)OC(=O)[C@@H](C(C)C)NC(=O)[C@@H](C(C)C)OC1=O [Valinomycin]
Human skin fibroblasts [1]; [5]
  Factor of Protection, Chloroquine (ID50 with agent / ID50 alone): 13
Human skin fibroblasts [1]; [6]
  Factor of Protection, Propranolol (ID50 with agent / ID50 alone): 1

## Ammonium chloride
Human skin fibroblasts [1]; against chloroquine cytotoxicity, agent 4 × 10^-2 M
  Factor of Protection, Chloroquine (ID50 with agent / ID50 alone): 26
Human skin fibroblasts [1]; against propranolol cytotoxicity, agent 4 × 10^-2 M, pre-treatment of 2 hours with agent
  Factor of Protection, Propranolol (ID50 with agent / ID50 alone): 1.3

## Gramicidin D
Human skin fibroblasts [1]; [5]
  Factor of Protection, Chloroquine (ID50 with agent / ID50 alone): 31
Human skin fibroblasts [1]; [6]
  Factor of Protection, Propranolol (ID50 with agent / ID50 alone): 1
